The target in assay [1] is KRAS-G12D (Homo sapiens, UniProt P01116, G12D). The assay can be described thus: SOS-catalyzed nucleotide exchange assay (Procedure A, TR-FRET), KRAS-G12D. It counts as biochemical. To be noted: nucleotide exchange, read-out: KRAS G12D GNE IC50. The method, boiled down: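 Signal ratio (520/495 nm, excitation 340 nm) reports Bodipy-GDP retention on biotinylated RAS after SOS-catalyzed exchange with 3 mM GTP. SOS was 40 nM, except 160 nM for G12V. Room-temperature exchange lasted 60 min (90 min for G12V), following a 60 min compound preincubation.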
Chain of KRAS-G12D (P01116 with tags, fused parts or gaps isoform P01116-2 G12D): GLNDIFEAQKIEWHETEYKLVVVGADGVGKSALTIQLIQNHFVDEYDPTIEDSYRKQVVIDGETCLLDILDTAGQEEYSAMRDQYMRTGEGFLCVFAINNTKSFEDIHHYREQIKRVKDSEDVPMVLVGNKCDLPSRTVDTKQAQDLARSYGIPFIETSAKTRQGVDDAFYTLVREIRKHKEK
On the technique in general: Time-resolved FRET reads energy transfer from a long-lived donor to a nearby acceptor.

The subject of assay [2] is AsPC-1 cells. In words: Cellular phospho-ERK assay, AsPC-1 cells (homozygous KRAS-G12D). It counts as cell-based. To be noted: Homo sapiens, ASPC1, 2 h, KRAS-G12D, 2 hours, read-out: AsPC1 pERK IC50. The essentials: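 Cells seeded at 10,000-15,000 per well were incubated overnight, then exposed to compound for 2 hours at 37 °C in a 10-point, 1:3 series topping at 30 μM final. Lysates were assayed by Alpha SureFire Ultra multiplex for p-ERK and total ERK; IC50 came from a 4-parameter logistic fit of their ratio.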

The target in assay [3] is KRAS-G13D (Homo sapiens, UniProt P01116, G13D). The assay can be described thus: SOS-catalyzed nucleotide exchange assay (Procedure A, TR-FRET), KRAS-G13D. It counts as biochemical. As to conditions: nucleotide exchange, Procedure A; read-out: KRAS G13D GNE IC50.
Chain of KRAS-G13D (P01116 with tags, fused parts or gaps isoform P01116-2 G13D): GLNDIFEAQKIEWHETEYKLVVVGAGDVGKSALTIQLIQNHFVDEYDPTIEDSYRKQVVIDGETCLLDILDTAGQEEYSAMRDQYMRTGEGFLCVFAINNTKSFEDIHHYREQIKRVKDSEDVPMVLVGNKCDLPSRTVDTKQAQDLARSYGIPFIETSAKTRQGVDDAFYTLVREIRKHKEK

In general, IC50 refers to the point on the concentration scale where inhibition reaches its midpoint. As for `C#Cc1c(F)ccc2cc(O)cc(-c3nccc4c5c(N6CCOC[C@@](C)(O)C6)nc(OC[C@@]67CCCN6C[C@H](F)C7)nc5n(C)c34)c12` [Ex-18, (S)-4-(8-(8-ethynyl-7-fluoro-3-hydroxynaphthalen-1-yl)-2-(((2R,7aS)-2-fluorotetrahydro-1H-pyrrolizin-7a(5H)-yl)methoxy)-9-methyl-9H-pyrido[4′,3′:4,5]pyrrolo[2,3-d]pyrimidin-4-yl)-6-methyl-1,4-oxazepan-6-ol], the IC50 came to 1.15 nM in assay [1], 29.8 nM in assay [2] and 2.66 nM in assay [3].

Source of the values: patent publication US20260176289A1, “SMALL MOLECULE INHIBITORS OF KRAS PROTEINS” (Merck Sharp & Dohme LLC, priority 2022, published 2026).
